# Laboratory results published in ChEMBL document CHEMBL2375350, “Synthesis of indolyl-3-acetonitrile derivatives and their inhibitory effects on nitric oxide and PGE2 productions in LPS-induced RAW 264.7 cells” (Bioorg Med Chem Lett, 2013).
# Tests used:
# [1] = test system: RAW264.7; assay: Antiinflammatory activity in mouse RAW264.7 cells assessed as inhibition of LPS-induced PGE2 production incubated for 1 hr prior to LPS challenge measured after 24 hrs by EIA; assay type: functional, cell-based
# [2] = test system: RAW264.7; assay: Antiinflammatory activity in mouse RAW264.7 cells assessed as inhibition of LPS-induced nitrite production after 24 hrs by Griess assay; assay type: functional, cell-based; settings: RAW264.7, 24 h
# [3] = test system: RAW264.7; assay: Cytotoxicity against mouse RAW264.7 cells assessed as cell viability after 24 hrs by MTT assay; assay type: cell-based; settings: RAW264.7, 24 h
IC50 [1],IC50 [2],Structure (SMILES),IC50 [3]
> 25 µM,19.4 µM,N#CCc1c[nH]c2ccc(OCc3ccccc3)cc12,82.7 µM
83.6 µM,> 100 µM,COc1ccc2c(CC#N)c[nH]c2c1,161 µM
15.2 µM,> 100 µM,COC(=O)n1cc(CC#N)c2ccc(O)cc21,339 µM
> 100 µM,> 100 µM,COC(=O)Cn1cc(CC#N)c2ccc(O)cc21,> 400 µM
6.22 µM,39.8 µM,Cn1cc(CC#N)c2cccc(O)c21,> 400 µM
41.3 µM,82.1 µM,CC(=O)n1cc(CC#N)c2ccc(O)cc21,> 400 µM
11.7 µM,80.1 µM,Cn1cc(CC#N)c2ccc(O)cc21,372 µM
16 µM,57.1 µM,Cn1cc(CC#N)c2c(O)cccc21,> 400 µM
57.7 µM,> 100 µM,Cn1cc(CC#N)c2cc(O)ccc21,325 µM
73.1 µM,48.7 µM,N#CCc1c[nH]c2c(OCc3ccccc3)cccc12,> 400 µM
32.4 µM,45.6 µM,N#CCc1c[nH]c2cccc(OCc3ccccc3)c12,105 µM
> 25 µM,20.4 µM,N#CCc1c[nH]c2cc(OCc3ccccc3)ccc12,53.2 µM
> 100 µM,> 100 µM,COc1cccc2c(CC#N)c[nH]c12,> 400 µM
> 100 µM,> 100 µM,COc1ccc2[nH]cc(CC#N)c2c1,99.6 µM
13.9 µM,83.6 µM,COc1cccc2[nH]cc(CC#N)c12 [ARVELEXIN],207 µM
